# Target: T1, Kv1.3 potassium channel (Homo sapiens, UniProt P22001)
# T1 construct: expressed in transfected cells
# Assay: Kv1.3 potassium channel blocker activity, automated whole-cell patch clamp (Patchliner)
# Type: cell-based
# Conditions: CHO-K1 cells stably expressing Kv1.3; whole-cell current inhibition, Hill fit; read-out: Kv1.3 IC50
# Experimental: CHO-K1 cells stably expressing Kv1.3 were grown in DMEM containing 10% heat-inactivated FBS, 1 mM sodium pyruvate, 2 mM L-glutamine and G418 (500 μg/ml).
# The currents were evoked by applying 100 ms depolarizing pulses from −90 mV (holding potential) to +40 mV were applied with 0.1 Hz frequency. […] 10-second breaks were used between pulse trains (see Table H below).
# Passive leak currents were subtracted online using a P/4 procedure (HEKA Elektronik Dr. Schulze GmbH). […] Total compound incubation time before the next pulse train was not longer than 10 seconds. Peak current inhibition was observed during compound equilibration.
# T1 sequence (P22001 whole entry): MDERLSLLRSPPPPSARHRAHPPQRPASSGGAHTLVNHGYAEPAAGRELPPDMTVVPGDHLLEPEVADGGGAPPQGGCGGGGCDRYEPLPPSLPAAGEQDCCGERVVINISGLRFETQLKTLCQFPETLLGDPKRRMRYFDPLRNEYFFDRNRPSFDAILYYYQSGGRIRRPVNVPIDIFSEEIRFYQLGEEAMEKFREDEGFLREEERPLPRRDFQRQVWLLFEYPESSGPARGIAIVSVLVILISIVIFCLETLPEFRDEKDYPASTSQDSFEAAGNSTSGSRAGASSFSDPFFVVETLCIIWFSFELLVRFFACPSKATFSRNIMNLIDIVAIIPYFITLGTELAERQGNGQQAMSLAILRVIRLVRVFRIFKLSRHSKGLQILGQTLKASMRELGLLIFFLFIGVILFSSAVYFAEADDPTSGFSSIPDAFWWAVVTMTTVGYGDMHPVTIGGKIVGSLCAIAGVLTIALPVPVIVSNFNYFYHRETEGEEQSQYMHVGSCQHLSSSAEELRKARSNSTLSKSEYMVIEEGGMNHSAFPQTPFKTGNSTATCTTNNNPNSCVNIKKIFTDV
row,Structure (SMILES),IC50 [µM]
1,"O=C1C[C@H](c2c(O)ccc(Cl)c2Cl)CCN1[C@@H]1CCNC1 (single isomer, unassigned) [Compound 3, 4-(2,3-dichloro-6-hydroxyphenyl)-1-[pyrrolidin-3-yl]piperidin-2-one]",< 1
2,"O=C1C[C@@H](c2c(O)ccc(Cl)c2Cl)CCN1[C@@H]1CCNC1 (single isomer, unassigned) [Compound 4, 4-(2,3-dichloro-6-hydroxyphenyl)-1-[pyrrolidin-3-yl]piperidin-2-one]",< 1
3,"O=C1CC[C@@H](c2c(O)ccc(Cl)c2Cl)CN1[C@H]1CCNC1 (single isomer, unassigned) [Compound 6, 5-(2,3-dichloro-6-hydroxyphenyl)-1-[pyrrolidin-3-yl]piperidin-2-one]",< 1
4,"O=C1N[C@@H](c2c(O)ccc(Cl)c2Cl)CCN1[C@H]1CCNC1 (single isomer, unassigned) [Compound 8, 4-(2,3-dichloro-6-hydroxyphenyl)-1-[pyrrolidin-3-yl]-tetrahydropyrimidin-2(1H)-one]",< 1
5,"O=C1N[C@H](c2c(O)ccc(Cl)c2Cl)CCN1[C@H]1CCNC1 (single isomer, unassigned) [Compound 10, 4-(2,3-dichloro-6-hydroxyphenyl)-1-[pyrrolidin-3-yl]-tetrahydropyrimidin-2(1H)-one]",< 1
6,"O=C1C[C@@H](c2c(O)ccc(Cl)c2Cl)CN1[C@H]1CCOC1 (single isomer, unassigned; isomer 1) [Compound 27]",< 1
7,"C[C@@H](O)CCN1C[C@H](c2c(O)ccc(Cl)c2Cl)CC1=O (single isomer, unassigned; isomer 1) [Compound 47]",< 0.1
8,"C[C@H]1C(=O)N(C2CNC2)C[C@H]1c1c(O)ccc(Cl)c1Cl (single isomer, unassigned; isomer 1) [Compound 87, 1-(azetidin-3-yl)-4-(2,3-dichloro-6-hydroxyphenyl)-3-methylpyrrolidin-2-one isomer 1]",< 1
9,"O=C1CN[C@@H](c2c(O)ccc(Cl)c2Cl)CN1C1CNC1 (single isomer, unassigned; isomer 1) [Compound 97, 1-(azetidin-3-yl)-5-(2,3-dichloro-6-hydroxyphenyl)piperazin-2-one isomer 1]",< 1
10,"O=C1C[C@@H](c2c(O)ccc(Cl)c2Cl)CN1C1CCOC1 (single isomer, unassigned; isomer 2) [Compound 28]",< 1
11,"C[C@H](O)CCN1C[C@H](c2c(O)ccc(Cl)c2Cl)CC1=O (single isomer, unassigned; isomer 2) [Compound 48]",< 0.1
12,"C[C@@H]1C(=O)N(C2CNC2)C[C@H]1c1c(O)ccc(Cl)c1Cl (single isomer, unassigned; isomer 2) [Compound 88, 1-(azetidin-3-yl)-4-(2,3-dichloro-6-hydroxyphenyl)-3-methylpyrrolidin-2-one isomer 2]",< 10
13,"O=C1CO[C@@H](c2c(O)ccc(Cl)c2Cl)CN1CCO (single isomer, unassigned; isomer 2) [Compound 96, 6-(2,3-dichloro-6-hydroxyphenyl)-4-(2-hydroxyethyl)morpholin-3-one isomer 2]",< 30
14,"O=C1CN[C@H](c2c(O)ccc(Cl)c2Cl)CN1C1CNC1 (single isomer, unassigned; isomer 2) [Compound 98, 1-(azetidin-3-yl)-5-(2,3-dichloro-6-hydroxyphenyl)piperazin-2-one isomer 2]",< 30
15,"C[C@H]1C(=O)N(C2CNC2)C[C@@H]1c1c(O)ccc(Cl)c1Cl (single isomer, unassigned; isomer 3) [Compound 89, 1-(azetidin-3-yl)-4-(2,3-dichloro-6-hydroxyphenyl)-3-methylpyrrolidin-2-one isomer 3]",< 10
16,"CC1[C@@H](c2c(O)ccc(Cl)c2Cl)CC(=O)N1C[C@H](O)CO (stereo in doubt) [Compound 78, (4R,5R)-4-(2,3-dichloro-6-hydroxyphenyl)-1-[(2S)-2,3-dihydroxypropyl]-5-methylpyrrolidin-2-one]",< 10
17,"CC1[C@@H](c2c(O)ccc(Cl)c2Cl)CC(=O)N1CCO (stereo in doubt) [Compound 80, (4R,5R)-4-(2,3-dichloro-6-hydroxyphenyl)-1-(2-hydroxyethyl)-5-methylpyrrolidin-2-one]",< 10
18,"O=C1C[C@@H](c2c(O)ccc(Cl)c2Cl)CN1C(CO)CO [Compound 18, (4S)-4-(2,3-dichloro-6-hydroxyphenyl)-1-(1,3-dihydroxypropan-2-yl)pyrrolidin-2-one]",< 1
19,"CC(C)(O)CCN1C[C@H](c2c(O)ccc(Cl)c2Cl)CC1=O [Compound 45, (S)-4-(2,3-dichloro-6-hydroxyphenyl)-1-(3-hydroxy-3-methylbutyl)pyrrolidin-2-one]",< 1
20,"N[C@@H](CO)CN1C[C@H](c2c(O)ccc(Cl)c2Cl)CC1=O [Compound 49, (4S)-1-[(2R)-2-amino-3-hydroxypropyl]-4-(2,3-dichloro-6-hydroxyphenyl)pyrrolidin-2-one]",< 0.1
21,"N[C@H](CO)CN1C[C@H](c2c(O)ccc(Cl)c2Cl)CC1=O [Compound 50, (4S)-1-[(2S)-2-amino-3-hydroxypropyl]-4-(2,3-dichloro-6-hydroxyphenyl)pyrrolidin-2-one]",< 0.1
22,"Cn1cnc(N2C[C@H](c3c(O)ccc(Cl)c3Cl)CC2=O)c1 [Compound 59, (S)-4-(2,3-dichloro-6-hydroxyphenyl)-1-(1-methyl-1H-imidazol-4-yl)pyrrolidin-2-one]",< 1
23,"Cc1cc(N2C[C@H](c3c(O)ccc(Cl)c3Cl)CC2=O)sn1 [Compound 60, (S)-4-(2,3-dichloro-6-hydroxyphenyl)-1-(3-methylisothiazol-5-yl)pyrrolidin-2-one]",< 1
24,"O=C1C[C@@H](c2c(O)ccc(Cl)c2Cl)CN1c1cccnc1 [Compound 63, (S)-4-(2,3-dichloro-6-hydroxyphenyl)-1-(pyridin-3-yl)pyrrolidin-2-one]",< 1
25,"O=C1C[C@@H](c2c(O)ccc(Cl)c2Cl)CN1c1cnn(CCO)c1 [Compound 69, (S)-4-(2,3-dichloro-6-hydroxyphenyl)-1-(1-(2-hydroxyethyl)-1H-pyrazol-4-yl)pyrrolidin-2-one]",< 0.1
26,"Cc1cc(N2C[C@H](c3c(O)ccc(Cl)c3Cl)CC2=O)no1 [Compound 73, (S)-4-(2,3-dichloro-6-hydroxyphenyl)-1-(5-methylisoxazol-3-yl)pyrrolidin-2-one]",< 10
27,"C[C@H]1[C@@H](c2c(O)ccc(Cl)c2Cl)CC(=O)N1C1CNC1 [Compound 83, (4R,5S)-1-(azetidin-3-yl)-4-(2,3-dichloro-6-hydroxyphenyl)-5-methylpyrrolidin-2-one]",< 10
28,"C[C@@H]1[C@H](c2c(O)ccc(Cl)c2Cl)CC(=O)N1CCO [Compound 84, (4S,5R)-4-(2,3-dichloro-6-hydroxyphenyl)-1-(2-hydroxyethyl)-5-methylpyrrolidin-2-one]",< 1
29,"C[C@H]1[C@@H](c2c(O)ccc(Cl)c2Cl)CC(=O)N1CCO [Compound 85, (4R,5S)-4-(2,3-dichloro-6-hydroxyphenyl)-1-(2-hydroxyethyl)-5-methylpyrrolidin-2-one]",< 30
30,"N[C@@H]1C(=O)N(C2CNC2)C[C@H]1c1c(O)ccc(Cl)c1Cl [Compound 91, (3S,4R)-3-amino-1-(azetidin-3-yl)-4-(2,3-dichloro-6-hydroxyphenyl)pyrrolidin-2-one]",< 10

# From US20230373952A1, “LACTAM COMPOUNDS AS Kv1.3 POTASSIUM SHAKER CHANNEL BLOCKERS” (D.E. Shaw Research, LLC, priority 2020, published 2023)
